# Data as given in paper PMC10525927, “First Generation of Antioxidant Precursors for Bioisosteric Se-NSAIDs: Design, Synthesis, and In Vitro and In Vivo Anticancer Evaluation” (Antioxidants, 2023).
# How the values were obtained:
# Type in all cases: cell-based
# [1] = tested on: PC-3 prostate cancer cells; assay: MTT cell viability assay, PC-3; conditions: 48 h, mean ± SD; for GI50 / LD50 PC-3 / TGI PC-3: Table S1; for TGI PC-3: in vitro TGI concentration
# Method: (§1) The cell lines were purchased from the American Type Culture Collection (ATCC). The cancer cell lines DU-145, PC-3, T-47D, MDA-MB-231, H1299, and A549, and the non-tumorigenic cells (184B5 and BEAS-2B), were maintained in RPMI 1640 medium (Gibco, Alcobendas, Madrid, Spain) supplemented with 10% fetal bovine serum (FBS; Gibco) and 1% antibiotics (10.00 units/mL penicillin and 10.00 mg/mL streptomycin; Gibco). Colon cancer cells HT-29 and HCT-116 were cultured in McCoy’s 5A medium (Gibco) supplemented with 10% fetal bovine serum (FBS; Gibco) and 1% antibiotics (10.00 units/mL penicillin and 10.00 mg/mL streptomycin; Gibco). Cells were maintained in tissue culture flasks at 37 °C and 5% CO2. The culture medium was replaced every three days.
# (§2) The antiproliferative activity and selectivity in vitro of the Se-NSAID derivatives were determined by the (3-(4,5-dimethylthiazol-2-yl)-2,5-diphenyltetrazolium bromide) (MTT) assay. Compounds were dissolved in DMSO at a concentration of 0.01 M and serial dilutions were prepared. The Se-NSAID derivatives were tested at seven concentrations ranging between 1 and 100 µM in the colon (HT-29 and HCT-116), prostate (DU-145 and PC-3), breast (MDA-MB-231 and T-47D), and lung (H1299 and A549) cancer cell lines. The non-tumorigenic breast (184B5) and lung (BEAS-2B) cell lines were also tested to assess the selectivity of the compounds following the same procedure. A total of 1 × 10^4 cells were seeded per well in 96-well plates and incubated at 5% CO2 and 37 °C for 24 h. Then, cells were treated with either DMSO or increasing concentrations of the corresponding Se-NSAID derivatives for 48 h. A volume of 20 µL of MTT (5 mg/mL) was added to each well 2.5 h before the termination point. At the end of the experiment, the medium was removed, and the resultant formazan crystals formed by mitochondrial reduction of MTT were dissolved in 50 µL of DMSO. Absorbance was measured at 550 nm. IC50, GI50, TGI, and LC50 values were calculated using OriginPro version 8.5.1. software by nonlinear curve fitting. Selectivity indexes (SI) were calculated as the ratio of the IC50 values determined for the nonmalignant and the tumoral cells in the breast (IC50 (184B5)/IC50 (MDA-MB-231) and IC50 (184B5)/IC50 (T-47D)) and lung (IC50 (BEAS-2B)/IC50 (H1299) and IC50 (BEAS-2B)/IC50 (A549)) cell lines. Data were obtained from at least three independent experiments performed in triplicates.
# [2] = tested on: DU-145 prostate cancer cells; assay: MTT cell viability assay, DU-145; conditions: mean ± SD; for LD50 DU-145 / GI50 / TGI DU-145: Table S1; for TGI DU-145: in vitro TGI concentration
# Method: as §1, §2
# [3] = tested on: 184B5 non-tumorigenic breast (mammary gland) cells; assay: MTT cell viability assay, 184B5; conditions: mean ± SD; for IC50: nonmalignant breast cells; for TGI 184B5: in vitro TGI concentration
# Method: as §1, §2
# [4] = tested on: HCT-116 colon cancer cells; assay: MTT cell viability assay, HCT-116; conditions: mean ± SD; for TGI HCT-116: in vitro TGI concentration
# Method: as §1, §2
# H1299 lung cancer cells = assay: MTT cell viability assay, H1299; conditions: mean ± SD; for TGI H1299: in vitro TGI concentration
# Method: as §1, §2
# [5] = tested on: MDA-MB-231 breast cancer cells; assay: MTT cell viability assay, MDA-MB-231; conditions: mean ± SD; for IC50 / GI50: Homo sapiens, MDA-MB-231, 48 h; for GI50 / TGI MDA-MB-231: Table S1; for TGI MDA-MB-231: in vitro TGI concentration, 48 h
# Method: as §1, §2
# HT-29 colon cancer cells = assay: MTT cell viability assay, HT-29; conditions: mean ± SD; for IC50 / GI50: Homo sapiens, HT-29, 48 h; for TGI HT-29: in vitro TGI concentration
# Method: as §1, §2
# [6] = tested on: BEAS-2B non-tumorigenic lung (bronchial epithelium) cells; assay: MTT cell viability assay, BEAS-2B; conditions: 48 h, mean ± SD; for LD50 BEAS-2B / GI50 / TGI BEAS-2B: Table S1; for IC50: nonmalignant lung cells; for TGI BEAS-2B: in vitro TGI concentration
# Method: as §1, §2
# A549 lung cancer cells = assay: MTT cell viability assay, A549; conditions: mean ± SD; for TGI A549: in vitro TGI concentration
# Method: as §1, §2
# [7] = tested on: T-47D breast cancer cells; assay: MTT cell viability assay, T-47D; conditions: 48 h, mean ± SD; for LD50 T-47D / GI50 / TGI T-47D: Table S1; for IC50 / GI50: Homo sapiens, T47D; for TGI T-47D: in vitro TGI concentration
# Method: as §1, §2
# [8] = Homo sapiens, 184B5, 48 h, Table S1
# [9] = Homo sapiens, HCT-116, 48 h, Table S1
# [10] = Homo sapiens, NCI-H1299, 48 h, Table S1
# [11] = Homo sapiens, A549, 48 h, Table S1
compound,measurement,setting,value
"CC(C(=O)[Se][Se]C(=O)C(C)c1cccc(C(=O)c2ccccc2)c1)c1cccc(C(=O)c2ccccc2)c1 (centres unmarked) [Compound 4, 2-(3-Benzoylphenyl)propanoic diselenoperoxyanhydride]",IC50,[1],5.8 ± 0.6 µM
same,GI50,[1],4.8 ± 0.4 µM
same,LD50 PC-3,[1],6.7 ± 1.2 µM
same,TGI PC-3,[1],5.5 ± 0.5 µM
same,LD50 DU-145,[2]; 48 h,39.6 ± 2.4 µM
same,IC50,"[2]; Homo sapiens, DU-145, 48 h",27.9 ± 3.2 µM
same,GI50,"[2]; Homo sapiens, DU-145, 48 h",19.5 ± 3.5 µM
same,TGI DU-145,[2]; 48 h,28.5 ± 2.9 µM
same,IC50,[3]; 48 h,5.9 ± 0.8 µM
same,GI50,[3]; [8],4.8 ± 0.3 µM
same,IC50,"[3]; Homo sapiens, 184B5, 48 h",~5 µM
same,TGI 184B5,"[3]; 48 h, Table S1",5.4 ± 0.4 µM
same,IC50,"[4]; Homo sapiens, HCT-116, 48 h",5.9 ± 1.1 µM
same,GI50,[4]; [9],4.3 ± 0.6 µM
same,TGI HCT-116,"[4]; 48 h, Table S1",6.7 ± 1.9 µM
same,LD50 H1299,"H1299 lung cancer cells; 48 h, Table S1",43.5 ± 1.8 µM
same,IC50,"H1299 lung cancer cells; Homo sapiens, NCI-H1299, 48 h",31.6 ± 1.7 µM
same,GI50,H1299 lung cancer cells; [10],24.6 ± 1.8 µM
same,TGI H1299,"H1299 lung cancer cells; 48 h, Table S1",33.6 ± 1.6 µM
same,IC50,[5],4.3 ± 1.2 µM
same,GI50,[5],2.4 ± 0.5 µM
same,TGI MDA-MB-231,[5],4.2 ± 1.7 µM
same,LD50 HT-29,"HT-29 colon cancer cells; 48 h, Table S1",62.5 ± 14.3 µM
same,IC50,HT-29 colon cancer cells,39.7 ± 3.3 µM
same,GI50,HT-29 colon cancer cells; Table S1,24.4 ± 2.6 µM
same,TGI HT-29,"HT-29 colon cancer cells; 48 h, Table S1",36.2 ± 3.0 µM
same,LD50 BEAS-2B,[6],5.4 ± 0.4 µM
same,IC50,[6],5.2 ± 0.4 µM
same,GI50,"[6]; Homo sapiens, BEAS-2B",4.2 ± 0.6 µM
same,IC50,"[6]; Homo sapiens, BEAS-2B",~5 µM
same,TGI BEAS-2B,[6],4.7 ± 0.3 µM
same,IC50,"A549 lung cancer cells; Homo sapiens, A549, 48 h",11.7 ± 0.9 µM
same,GI50,A549 lung cancer cells; [11],8.1 ± 0.4 µM
same,TGI A549,"A549 lung cancer cells; 48 h, Table S1",19.9 ± 3.4 µM
same,LD50 T-47D,[7],27.2 ± 2.3 µM
same,IC50,[7],26 ± 2 µM
same,GI50,[7],> 100000 nM
same,TGI T-47D,[7],9.5 ± 2.3 µM
"CC(=O)Oc1ccccc1C(=O)[Se][Se]C(=O)c1ccccc1OC(C)=O [Compound 1, 2-Acetoxybenzoic diselenoperoxyanhydride]",GI50,[1],2.8 ± 0.2 µM
same,LD50 PC-3,[1],3.3 ± 0.4 µM
same,TGI PC-3,[1],3.0 ± 0.3 µM
same,IC50,[2]; 48 h,5 ± 0.1 µM
same,LD50 DU-145,[2]; 48 h,6.1 ± 0.7 µM
same,IC50,"[2]; Homo sapiens, DU-145, 48 h",< 10 µM
same,GI50,"[2]; Homo sapiens, DU-145, 48 h",4.4 ± 0.5 µM
same,TGI DU-145,[2]; 48 h,5.1 ± 0.2 µM
same,LD50 184B5,"[3]; 48 h, Table S1",21.1 ± 3.9 µM
same,IC50,[3]; 48 h,14.4 ± 1.5 µM
same,GI50,[3]; [8],7 ± 1.1 µM
same,IC50,"[3]; Homo sapiens, 184B5, 48 h",14 to 19 µM
same,TGI 184B5,"[3]; 48 h, Table S1",11.3 ± 1.4 µM
same,IC50,[4]; 48 h,39.2 ± 7.3 µM
same,LD50 HCT-116,"[4]; 48 h, Table S1",88.0 ± 3.5 µM
same,IC50,"[4]; Homo sapiens, HCT-116, 48 h",~40 µM
same,GI50,[4]; [9],21 ± 4 µM
same,TGI HCT-116,"[4]; 48 h, Table S1",44.5 ± 7.1 µM
same,IC50,H1299 lung cancer cells; 48 h,8.6 ± 0.8 µM
same,IC50,"H1299 lung cancer cells; Homo sapiens, NCI-H1299, 48 h",< 10 µM
same,GI50,H1299 lung cancer cells; [10],7.7 ± 1.2 µM
same,TGI H1299,"H1299 lung cancer cells; 48 h, Table S1",9.4 ± 0.8 µM
same,IC50,[5],18.3 ± 6.9 µM
same,GI50,[5],6.6 ± 2.2 µM
same,TGI MDA-MB-231,[5],15.3 ± 4.6 µM
same,IC50,HT-29 colon cancer cells,6.6 ± 2.2 µM
same,GI50,HT-29 colon cancer cells; Table S1,3.9 ± 0.4 µM
same,TGI HT-29,"HT-29 colon cancer cells; 48 h, Table S1",6.2 ± 1.9 µM
same,LD50 BEAS-2B,[6],17.0 ± 5.7 µM
same,IC50,[6],18.5 ± 3 µM
same,GI50,"[6]; Homo sapiens, BEAS-2B",3.9 ± 1.3 µM
same,IC50,"[6]; Homo sapiens, BEAS-2B",14 to 19 µM
same,TGI BEAS-2B,[6],8.4 ± 2.4 µM
same,IC50,A549 lung cancer cells; 48 h,7 ± 1.3 µM
same,LD50 A549,"A549 lung cancer cells; 48 h, Table S1",74.6 ± 5.9 µM
same,IC50,"A549 lung cancer cells; Homo sapiens, A549, 48 h",< 10 µM
same,GI50,A549 lung cancer cells; [11],> 100 µM
same,TGI A549,"A549 lung cancer cells; 48 h, Table S1",26.2 ± 5.8 µM
same,LD50 T-47D,[7],6.0 ± 1.9 µM
same,IC50,[7],5.9 ± 1.4 µM
same,GI50,[7],1600 ± 300 nM
same,TGI T-47D,[7],2.9 ± 0.6 µM
